How the values were obtained:
[1] = biological target: T1, recombinant renin in human plasma (Homo sapiens, UniProt P00797); assay: Inhibition of renin in human plasma (QFRET, plasma); format: biochemical; conditions: human EDTA plasma with 1 nM recombinant renin added; 37° C., 1 hour
T1 construct: purchased Proteos
T1 sequence (P00797 67-406): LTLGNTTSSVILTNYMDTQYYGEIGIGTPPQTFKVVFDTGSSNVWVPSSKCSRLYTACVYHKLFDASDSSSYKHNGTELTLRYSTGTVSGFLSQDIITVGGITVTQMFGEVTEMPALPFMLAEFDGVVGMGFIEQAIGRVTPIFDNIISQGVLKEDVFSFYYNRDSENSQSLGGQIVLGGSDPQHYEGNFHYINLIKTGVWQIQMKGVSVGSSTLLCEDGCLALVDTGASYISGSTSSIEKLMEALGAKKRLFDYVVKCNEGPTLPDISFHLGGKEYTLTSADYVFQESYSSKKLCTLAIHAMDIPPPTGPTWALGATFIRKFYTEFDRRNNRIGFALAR
Description: Inhibition of Renin in Human Plasma
Human EDTA-collected plasma is rapidly thawed in warm water and centrifuged at 2900 g for 15 minutes at 4° C. The supernatant is collected and recombinant renin (Proteos) is added at a final concentration of 1 nM. The plasma is transferred to a Costar black 384 well plate (#3573). Renin inhibitors are added from a 17.5 fold concentrated DMSO solution and pre-incubated at 37° C. for 10 minutes. The internally-quench fluorescent peptide QXL520™-[…](5-FAM) (Anaspec), SEQ ID NO: 2, is diluted in 3M Tris pH 7.2, 200 mM EDTA and added to the plasma. The final concentrations are: 6 μM substrate, 342 mM Tris, 23 mM EDTA. The plate is incubated at 37° C. for 1 hour. The plate is read in a SpectraMax Gemini EM reader set at an excitation wavelength of 490 nm and an emission wavelength of 520 nm at times 0 and 1 hour. Background fluorescence at t=0 is subtracted from the measurement at t=1 hour. Inhibitory activity of the compounds is expressed as IC50.

Human recombinant renin = biological target: T2, Human recombinant renin (Homo sapiens, UniProt P00797); assay: Inhibition of human recombinant renin (QFRET, buffer); format: biochemical; conditions: buffer: 50 mM MOPS pH 7.4, 100 mM NaCl, 0.002% Tween 20; 37° C., 3 hours
T2 construct: purchased Proteos
T2 sequence (P00797 67-406): T1 sequence (P00797 67-406)
Description: Inhibition of Human Recombinant Renin
Human recombinant renin (Proteos) in 50 mM MOPS pH 7.4, 100 mM NaCl, 0.002% Tween 20 at a final concentration of […] is incubated with inhibitors from a 50 fold concentrated DMSO solution and 6 μM of an internally-quenched fluorescent peptide: DNP-[…]D,L-Amp (SEQ ID NO: 1); Paschalidou K. et al., Biochem J., 2004, 382, 1031). The reactions take place in a Costar 384 well black plate (#3573) at 37° C. for 3 hours. Fluorescence is measured at times 0 and 3 hours with a SpectraMax Gemini EM reader set at an excitation wavelength of 328 nm and at an emission wavelength of 388 nm. Background fluorescence at t=0 is subtracted from the measurement at t=3 hours. Inhibitory activity of the compounds is expressed as IC50.

Compound | IC50 [1] | IC50 (Human recombinant renin)
COCCCc1ccccc1-c1ccc([C@H]2CNCC[C@@H]2c2ccccc2)c(C)c1 (racemic) [Structure 1] | > 10000 nM | 620 nM
COCCCc1ccccc1-c1ccc([C@H]2CNCC[C@@H]2c2cccnc2)c(C)c1 (racemic) [Structure 2] | 310 nM | 18 nM
CC(=O)NCCc1ccccc1-c1ccc([C@H]2CNCC[C@@H]2c2cccnc2)c(C)c1 (racemic) [Structure 3] | 41 nM | 9.2 nM
COCCCc1cc(OCCOC)ccc1-c1ccc([C@H]2CNCC[C@@H]2c2cccnc2)c(C)c1 (racemic) [Structure 6] | 1800 nM | 380 nM
Cc1cc(-c2ccccc2CCCO)ccc1[C@H]1CNCC[C@@H]1c1cccc2nc[nH]c12 (racemic) [Structure 9] | > 9500 nM | 998 nM
COCCCc1ccccc1-c1ccc([C@H]2CNCC[C@@H]2c2cccc3nc[nH]c23)c(Cl)c1 (racemic) [Structure 10] | 2060 nM | 3.5 nM
COCCCc1ccccc1-c1ccc([C@H]2CNCC[C@@H]2c2cccnc2)c(Cl)c1 (racemic) [Structure 11] | 66 nM | 2.7 nM
COCCCc1cccc(C)c1-c1ccc([C@H]2CNCC[C@@H]2c2cccnc2)c(C)c1 (racemic) [Structure 12] | 150 nM | 10 nM
Cc1cc(-c2ccccc2CCNC(=O)C(F)(F)F)ccc1[C@H]1CNCC[C@@H]1c1cc(F)cc(F)c1 (racemic) [Structure 20] | 25 nM | 0.57 nM
Cc1cc(-c2ccccc2CCNC(=O)c2cnn(C)c2)ccc1[C@H]1CNCC[C@@H]1c1cc(F)cc(F)c1 (racemic) [Structure 24] | 1010 nM | 73 nM
Cc1cc(-c2ccccc2CCNC(=O)OCc2ccccc2)ccc1[C@H]1CNCC[C@@H]1c1cc(F)cc(F)c1 (racemic) [Structure 25] | 5470 nM | 18 nM
Cc1cc(-c2ccccc2CCNC(=O)C(F)(F)C(F)(F)F)ccc1[C@H]1CNCC[C@@H]1c1cc(F)cc(F)c1 (racemic) [Structure 32] | 75 nM | 23 nM
Cc1cc(-c2ccccc2CCNC(=O)CC(F)(F)F)ccc1[C@H]1CNCC[C@@H]1c1cc(F)cc(F)c1 (racemic) [Structure 33] | 120 nM | 2.1 nM
COCCCc1ccccc1-c1ccc([C@H]2CNCC[C@]2(O)c2cc(F)cc(F)c2)c(C)c1 (racemic) [Structure 39] | 750 nM | 4.2 nM
COCCCc1ccccc1-c1ccc([C@H]2CNCC[C@]2(O)c2cccnc2)c(C)c1 (racemic) [Structure 40] | 1140 nM | 47 nM
O=C(NCCc1ccccc1-c1ccc([C@H]2CNCC[C@@H]2c2ccc(F)c(F)c2)c(Cl)c1)C(F)(F)F (racemic) [Structure 41] | 6.6 nM | 0.1 nM
COC(=O)NCCc1ccccc1-c1ccc([C@H]2CNCC[C@@H]2c2ccc(F)c(F)c2)c(Cl)c1 (racemic) [Structure 42] | 9.8 nM | 0.14 nM
O=C(CO)NCCc1ccccc1-c1ccc([C@H]2CNCC[C@@H]2c2ccc(F)c(F)c2)c(Cl)c1 (racemic) [Structure 43] | 3.5 nM | 0.26 nM
CC(=O)NCCc1ccccc1-c1ccc([C@H]2CNCC[C@@H]2c2ccc(F)c(F)c2)cc1 (racemic) [Structure 44] | 45 nM | 3.7 nM
CC(=O)NCCc1ccccc1-c1ccc([C@H]2CNCC[C@@H]2c2cccnc2N)c(Cl)c1 (racemic) [Structure 45] | 4580 nM | 710 nM
CC(=O)NCCc1ccc(C(F)(F)F)cc1-c1ccc([C@H]2CNCC[C@@H]2c2ccc(F)c(F)c2)c(Cl)c1 (racemic) [Structure 46] | 280 nM | 0.78 nM
CC(=O)NCCc1cc(C(F)(F)F)ccc1-c1ccc([C@H]2CNCC[C@@H]2c2ccc(F)c(F)c2)c(Cl)c1 (racemic) [Structure 47] | 140 nM | 0.59 nM
COCCCc1ccccc1-c1ccc([C@H]2CNCC[C@]2(OCC(O)CO)c2ccc(F)c(F)c2)c(C)c1 (mixture of isomers) [Structure 48] | 2020 nM | 16 nM
CC(=O)NCc1ccccc1-c1ccc([C@H]2CNCC[C@@H]2c2ccc(F)c(F)c2)cc1 (racemic) [Structure 49] | 9040 nM | 1710 nM
COCCCc1ccccc1-c1cc(C)c([C@H]2CNCC[C@@H]2c2ccc(Cl)c(F)c2)cn1 (racemic) [Structure 50] | 230 nM | 1.5 nM
O[C@]1(c2ccc(F)c(F)c2)CCNC[C@@H]1c1cc(-c2ccc(F)cc2Cl)no1 [Structure 69] | – | 2500 nM

Other lines, results leading:

IC50 [1] | IC50 (Human recombinant renin) | Compound
3150 nM | 85 nM | Cc1cc(-c2ccccc2CCCO)ccc1[C@H]1CNCC[C@@H]1c1cc(F)cc(F)c1 (racemic) [Structure 7, (+/−)-trans-3-{4′-[4-(3,5-difluorophenyl)piperidin-3-yl]-3′-methylbiphenyl-2-yl}propan-1-ol]
1180 nM | 4.3 nM | COCCCc1ccccc1-c1ccc([C@H]2CNCC[C@@H]2c2cc(F)cc(F)c2)c(C)c1 (racemic) [Structure 8]
18 nM | 1.6 nM | CC(=O)NCCc1ccccc1-c1ccc([C@H]2CNCC[C@@H]2c2cc(F)cc(F)c2)c(C)c1 (racemic) [Structure 15]
1.3 nM | 0.65 nM | CCC(=O)NCCc1ccccc1-c1ccc([C@H]2CNCC[C@@H]2c2cc(F)cc(F)c2)c(C)c1 (racemic) [Structure 18]
1810 nM | 71 nM | Cc1cc(-c2ccccc2CCNS(C)(=O)=O)ccc1[C@H]1CNCC[C@@H]1c1cc(F)cc(F)c1 (racemic) [Structure 19]
1150 nM | 14 nM | Cc1cc(-c2ccccc2CCNC(=O)C(C)C)ccc1[C@H]1CNCC[C@@H]1c1cc(F)cc(F)c1 (racemic) [Structure 21]
1170 nM | 20 nM | Cc1cc(-c2ccccc2CCNC(=O)c2ccccc2)ccc1[C@H]1CNCC[C@@H]1c1cc(F)cc(F)c1 (racemic) [Structure 22]
69 nM | 26 nM | Cc1cc(-c2ccccc2CCNC(=O)c2ccn(C)n2)ccc1[C@H]1CNCC[C@@H]1c1cc(F)cc(F)c1 (racemic) [Structure 23]
30 nM | 1.5 nM | Cc1cc(-c2ccccc2CCNC(=O)CO)ccc1[C@H]1CNCC[C@@H]1c1cc(F)cc(F)c1 (racemic) [Structure 26]
1040 nM | 81 nM | Cc1cc(-c2ccccc2CCN)ccc1[C@H]1CNCC[C@@H]1c1cc(F)cc(F)c1 (racemic) [Structure 27]
25 nM | 0.56 nM | COC(=O)NCCc1ccccc1-c1ccc([C@H]2CNCC[C@@H]2c2cc(F)cc(F)c2)c(C)c1 (racemic) [Structure 28]
> 28000 nM | 93 nM | Cc1cc(-c2cccc3ccc(O)cc23)ccc1[C@H]1CNCC[C@@H]1c1cc(F)cc(F)c1 (racemic) [Structure 29]
11300 nM | 100 nM | COCc1ccc2cccc(-c3ccc([C@H]4CNCC[C@@H]4c4cc(F)cc(F)c4)c(C)c3)c2c1 (racemic) [Structure 30]
130 nM | 4.4 nM | Cc1cc(-c2ccccc2CCNC(=O)C2CC2)ccc1[C@H]1CNCC[C@@H]1c1cc(F)cc(F)c1 (racemic) [Structure 31]
4980 nM | 7.5 nM | Cc1ccccc1OCc1ccccc1-c1ccc([C@H]2CNCC[C@@H]2c2cc(F)cc(F)c2)c(C)c1 (racemic) [Structure 34]
1890 nM | 3.8 nM | Cc1cc(-c2ccccc2COc2ccccc2)ccc1[C@H]1CNCC[C@@H]1c1cc(F)cc(F)c1 (racemic) [Structure 35]
94 nM | 0.55 nM | Cc1cc(-c2ccccc2COc2cccnc2)ccc1[C@H]1CNCC[C@@H]1c1cc(F)cc(F)c1 (racemic) [Structure 36]
12400 nM | 87 nM | Cc1cc(-c2ccccc2OCc2ccccc2)ccc1[C@H]1CNCC[C@@H]1c1cc(F)cc(F)c1 (racemic) [Structure 37]
> 28000 nM | 150 nM | Cc1cc(-c2ccccc2OCc2cccnc2)ccc1[C@H]1CNCC[C@@H]1c1cc(F)cc(F)c1 (racemic) [Structure 38]
